Laboratory results as given in patent publication US6121319A (priority 1998, dated 2000).

Tests used:
bacteria = test: Bacterial Ames test
Description: MSE is not a mutagen in the bacterial Ames test.

C57 black mice = test: Lipoproteins in cholesterol-fed C57 black mice, two weeks oral; assay type: in vivo, mouse
rats = test: Two-week oral administration to rats (toxicity, clinical chemistry); assay type: in vivo, rat; conditions: 1000 mg/kg/day
VCAM-1 [1] = test: VCAM-1 gene expression in lungs of LPS-challenged mice (Northern blot); assay type: in vivo, mouse; conditions: subcutaneous time release pellets, 150 mg/kg/day
Experimental: (§1) MSE administered via subcutaneous implanted pellets (150 mg/kg/day time release pellets) blocks LPS-induced gene expression of VCAM-1 and MCP-1 in lungs in a mice model.
(§2) FIG. 4 is a Northern blot analysis of VCAM-1 and MCP-1 gene expression from RNA isolated from the lungs of LPS-challenged ApoE knockout mice. […] After one week they were challenged intraperitoneally with 1 mg/kg of LPS. After two hours the animals were sacrificed and lungs frozen for RNA isolation. The RNA was size fractionated by denaturing 1.0% agarose gel electrophoresis, transferred to a nylon membrane and hybridized with a mouse JE-specific ^32 P-labelled cDNA probe. The membrane was subsequently stripped and hybridized with a mouse VCAM-1 specific cDNA and then a chicken β-actin specific cDNA probe.

aortic lesions = test: Aortic lesions in hypercholesterolemic rabbits (sudan-4 staining); assay type: in vivo, rabbit; conditions: six weeks
Experimental: (§3) Oral administration of MSE (150 mg/kg/day) for six weeks lowers total plasma, ApO-B containing and HDL cholesterol levels in a New Zealand White rabbit model.
(§4) After six weeks, lipoprotein fractions were separated from whole plasma by […], and analyzed for cholesterol and triglyceride content.
(§5) The rabbits described in Example 8 were sacrificed and aortas obtained. The aortas were stained with sudan-4 and the extent of staining analyzed. FIG. 9 is a graph of the percent aortic surface area covered by lesions in MSE treated and untreated lipid-fed rabbits.

apoE-knock out mice = test: Lipoproteins in apoE-knock out mice, two weeks oral; assay type: in vivo, mouse; conditions: for effect on HDL / effect on total cholesterol and LDL: mice
MCP-1 [2] = test: MCP-1 gene expression in lungs of LPS-challenged mice (Northern blot); assay type: in vivo, mouse; conditions: subcutaneous time release pellets, 150 mg/kg/day
Experimental: as §1, §2

[3] = system: macrophage accumulation (Ram-11 antigen); test: Macrophage accumulation in aorta sections of hypercholesterolemic rabbits (Ram-11 immunostaining); assay type: in vivo, rabbit; conditions: six weeks; for reduction in macrophage accumulation in aorta sections: immunostaining (Ram-11), approx. 150 mg/kg/day (probucol: similar experiment, same dose)
Description: as §4, §5
(§6) Sections of the aortas were immunostained for VCAM-1 expression or macrophage accumulation using antibodies for VCAM-1 or Ram-11 antigen.

VCAM-1 [4] = test: VCAM-1 expression (general statement)
[5] = Drug level in plasma of rabbits fed a high cholesterol diet for three weeks (HPLC); assay type: in vivo, rabbit; conditions: 0.5% wt/wt in high-fat chow, FIG. 6
Description: The drugs were extracted from plasma with ether and analyzed by high pressure liquid chromatography.

VCAM-1 [6] = test: VCAM-1 expression in human aortic endothelial cells (TNF-induced, ELISA); assay type: cell-based; conditions: for VCAM-1 expression as a percentage of VCAM-1 expression induced by TNF alone: HAEC, 2.5, 5, 10 and 100 μM, 16 h, 37 °C, FIG. 1
Experimental: The cells were incubated for sixteen hours in cell culture media at 37 degrees Celsius in a tissue culture incubator. After sixteen hours, the cells were washed, and incubated with antibodies to VCAM-1. The amount of antibody binding to the cells was determined by a colorometric ELISA assay using a horseradish peroxidase conjugated antibody to the VCAM-1 antibody.

lipid-fed rabbits = test: Cholesterol and lipoprotein cholesterol in plasma of lipid-fed rabbits, three weeks; assay type: in vivo, rabbit; conditions: 0.5% wt/wt in high-fat chow, p<0.05, FIG. 5
Description: Control animals were fed the same chow without drug added. Lipoprotein fractions were separated from whole plasma by […] and analyzed for cholesterol content.

[7] = system: hypercholesterolemic monkeys; test: Serum LDL and cholesterol in hypercholesterolemic cynomolgus monkeys; assay type: in vivo; conditions: for effect on HDL: monkeys
Experimental: Cynomolgus monkeys were made hypercholesterolemic prior to AGE-3 dosing by feeding a high fat cholesterol diet. The monkeys were then dosed orally with AGE-3 (100 mg/kg/day) for two weeks. The percent serum LDL cholesterol decreased in a range from 4 to 60 percent in the monkeys over this time period. Administration of the drug was then terminated, and serum cholesterol checked on day 29.

[8] = Plasma level of MSE over days of treatment (FIG. 10); assay type: in vivo; conditions: FIG. 10, in micromolar
VCAM-1 [9] = test: VCAM-1 expression in aorta sections of hypercholesterolemic rabbits (immunostaining); assay type: in vivo, rabbit; conditions: six weeks; for reduction in VCAM-1 expression in aorta sections: immunostaining, approx. 150 mg/kg/day (probucol: similar experiment, same dose)
Description: as §4, §5, §6

[10] = system: New Zealand white rabbits; test: Cholesterol and lipoproteins in cholesterol-fed New Zealand White rabbits, six weeks; assay type: in vivo, rabbit
Experimental: as §3, §4

rabbits = test: Effect on lipoproteins in rabbits (summary statement); assay type: in vivo, rabbit; conditions: for effect on HDL: rabbits (species not restated for probucol)
Description: Statins reduce LDL and may or may not effect HDL.

NF-kB [11] = test: NF-kB activation in TNF-treated human aortic endothelial cells (gel shift); assay type: cell-based; conditions: HAEC, 25 micromolar, 1, 2 or 4 h
Experimental: Human aortic endothelial cells were treated with TNF alone or in combination with 25 micromolar MSE or PDTC for a period of either one hour, two hours or four hours. The cells were washed and the nuclear extracts were prepared to perform gel shift analysis using a VCAM-1 promoter probe.

MCP-1 [12] = test: MCP-1 expression in human aortic endothelial cells (TNF, ELISA); assay type: cell-based
Description: The cell culture media was harvested and used to quantitate the amount of MCP-1 using a color-based ELISA assay. […] MCP-1 is a chemoattractant protein that recruits monocytes to an atherosclerotic lesion.

ICAM-1 = ICAM-1 expression in human aortic endothelial cells (TNF-induced, ELISA); assay type: cell-based; conditions: HAEC; 2.5, 5, 10 and 100 μM; 16 h; FIG. 2
Experimental: The cells were incubated for sixteen hours in cell culture media at 37 degrees Celsius in a tissue culture incubator. After sixteen hours, the cells were washed, and incubated with antibodies to ICAM-1. The amount of antibody binding to the cells was determined by a colorometric ELISA assay using a horseradish peroxidase conjugated antibody to the ICAM-1 antibody.

VCAM-1 [13] = conditions: U.S. Pat. No. 5,380,747; cited from earlier work
NF-kB [14] = conditions: diverse signals; cited from earlier work
VCAM-1 [15] = conditions: PCT/US95/05880; cited from earlier work
[16] = system: LDL receptor-deficient rabbits; conditions: Carew et al.; cited from earlier work
[17] = cited from earlier work
[18] = listed as monosuccinic acid ester of probucol
[19] = 0.5 wt/wt (approx. 150 mg/kg/day) in diet, FIG. 8
[20] = oral, 150 mg/kg/day, New Zealand White rabbit

SMILES: CC(C)(Sc1cc(C(C)(C)C)c(O)c(C(C)(C)C)c1)Sc1cc(C(C)(C)C)c(OC(=O)CCC(=O)O)c(C(C)(C)C)c1 [MSE, monosuccinic acid ester of probucol]
- mutagenicity (bacteria): not a mutagen
- apoB-containing lipoproteins (C57 black mice): selectively lowers
- effect on HDL (C57 black mice): without affecting HDL
- mortality (rats; oral, two weeks): did not result in any mortality
- changes in liver morphology or histopathology (rats; rat, in vivo, po): not accompanied with changes in liver morphology or histopathology
- hematocrit values (rats; rat, in vivo, po): no effect
- serum LDH elevation (rats; rat, in vivo, po): not statistically different from the untreated group
- serum SGOT elevation (rats; rat, in vivo, po): not statistically different from the untreated group
- serum SGPT elevation (rats; rat, in vivo, po): not statistically different from the untreated group
- serum alkaline phosphatase elevation (rats; rat, in vivo, po): not statistically different from the untreated group
- serum electrolyte values (rats; rat, in vivo, po): no effect
- LPS-induced gene expression of VCAM-1 in lungs (VCAM-1 [1]): blocks
- atherosclerosis lesion formation (aortic lesions; oral, 150 mg/kg/day): marked inhibition
- aortic sudan-4 staining (aortic lesions; approx. 150 mg/kg/day, FIG. 9): much less staining
- effect on HDL (apoE-knock out mice): without affecting HDL
- effect on total cholesterol and LDL (apoE-knock out mice): a minimal if any, effect
- effect on HDL (apoE-knock out mice; [18]): does not affect HDL
- apoB-containing lipoproteins (apoE-knock out mice; oral, two weeks, apoE-knock out mice): selectively lowers
- LPS-induced gene expression of MCP-1 in lungs (MCP-1 [2]): blocks
- reduction in macrophage accumulation in aorta sections [3]: more than 75%
- macrophage accumulation ([3]; oral, 150 mg/kg/day): marked inhibition
- effect on VCAM-1 expression (VCAM-1 [4]): block the induced expression of the endothelial cell surface adhesion molecule VCAM-1
- VCAM-1 expression, all species tested (VCAM-1 [4]; all species tested): inhibits the expression of VCAM-1 in all species tested
- drug level in plasma, MSE vs probucol [5]: similar
- VCAM-1 expression as a percentage of VCAM-1 expression induced by TNF alone (VCAM-1 [6]): inhibits the expression of VCAM-1
- TNF-induced VCAM-1 gene expression (VCAM-1 [6]; human aortic endothelial cells): selectively inhibits
- reduction in lipoprotein fractions (cholesterol) (lipid-fed rabbits): statistically significant reduction in all lipoprotein fractions
- serum cholesterol after termination of dosing ([7]; day 29, after 100 mg/kg/day oral for two weeks): returned to the pretreatment level
- lowering of LDL, reversibility ([7]; during and after administration, FIG. 12): reversible lowering of LDL
- effect on HDL [7]: without effecting HDL
- effect on total cholesterol and LDL, monkeys vs mice ([7]; monkeys compared with mice): significantly more effective at reducing both cholesterol and LDL in rabbits and monkeys than in mice
- effect on HDL [7, 18]: does not affect HDL
- LDL cholesterol ([7]; oral, two weeks): lowers
- total plasma cholesterol ([7]; oral, two weeks): lowers
- plasma level of MSE as a function of days [8]: remained fairly constant
- reduction in VCAM-1 expression in aorta sections (VCAM-1 [9]): more than 75%
- VCAM-1 expression in aorta (VCAM-1 [9]; oral, 150 mg/kg/day): marked inhibition
- cholesterol in IDL [10, 19]: lowered more by treatment with AGE-3 than with probucol
- cholesterol in VLDL [10, 19]: lowered more by treatment with AGE-3 than with probucol
- total cholesterol [10, 19]: lowered more by treatment with AGE-3 than with probucol
- ApO-B containing cholesterol levels [10, 20]: lowers
- HDL cholesterol levels [10, 20]: lowers
- total plasma cholesterol [10, 20]: lowers
- effect on HDL (rabbits): reduces HDL only to a small extent
- effect on total cholesterol and LDL, rabbits vs mice (rabbits; rabbits compared with mice): significantly more effective at reducing both cholesterol and LDL in rabbits and monkeys than in mice
- effect on NF-kB activation (NF-kB [11]): does not affect NF-kB activation
- MCP-1 expression (MCP-1 [12]; HAEC, MSE 10 μM, probucol 50 μM, TNF, 4 h, FIG. 3): inhibited the expression of MCP-1 to a greater extent than probucol itself
- TNF-induced MCP-1 gene expression (MCP-1 [12]; human aortic endothelial cells): selectively inhibits
- ICAM-1 expression as a percentage of ICAM-1 expression induced by TNF alone (ICAM-1): only a slight effect on ICAM expression which was not very concentration dependent

SMILES: S=C(S)N1CCCC1 [PDTC, pyrrolidine dithiocarbamate]
- expression of VCAM-1 in vascular endothelial cells (VCAM-1 [13]): can be inhibited
- activation of NF-kB in vascular endothelial cells (NF-kB [14]): specifically inhibited
- induction of VCAM-1 by polyunsaturated fatty acids and their hydroperoxides (VCAM-1 [15]): supressed
- effect on NF-kB activation (NF-kB [11]): does inhibit the activation of NF-kB

SMILES: CC(C)(Sc1cc(C(C)(C)C)c(O)c(C(C)(C)C)c1)Sc1cc(C(C)(C)C)c(O)c(C(C)(C)C)c1 [probucol, 4,4'-(isopropylidenedithio) bis(2,6-di-tert-butylphenol), reference compound]
- progression of atherosclerosis [16]: slow the progression of atherosclerosis
- effect on total cholesterol and LDL (apoE-knock out mice): a minimal if any, effect
- solubility in water [17]: almost insoluble in water
- reduction in macrophage accumulation in aorta sections [3]: less than 25%
- effect on VCAM-1 expression (VCAM-1 [4]): does not significantly affect VCAM-1 expression
- VCAM-1 expression as a percentage of VCAM-1 expression induced by TNF alone (VCAM-1 [6]): does not have an appreciable effect on VCAM
- reduction in lipoprotein fractions (cholesterol) (lipid-fed rabbits): only HDL cholesterol
- reduction in VCAM-1 expression in aorta sections (VCAM-1 [9]): less than 25%
- effect on HDL (rabbits): reduces HDL significantly
- effect on LDL (rabbits; species not restated for probucol): reduces LDL only to a small extent
- ICAM-1 expression as a percentage of ICAM-1 expression induced by TNF alone (ICAM-1): no effect on ICAM expression
